pIC50: −log10 of the molar value. Where two headings read alike, the source gives them in different places.
Key:
Type in all cases: biochemical
[1] = biological target: T1, human recombinant Monoacylglycerol Lipase (Homo sapiens, UniProt Q99685); experiment: MAGL inhibition enzymatic assay, fluorogenic substrate 7-HCA, IC50 at T=0 min or after 30 minute incubation (T=30 min); conditions: geometric mean of 2-4 determinations unless otherwise indicated
T1 sequence (Q99685 1-303): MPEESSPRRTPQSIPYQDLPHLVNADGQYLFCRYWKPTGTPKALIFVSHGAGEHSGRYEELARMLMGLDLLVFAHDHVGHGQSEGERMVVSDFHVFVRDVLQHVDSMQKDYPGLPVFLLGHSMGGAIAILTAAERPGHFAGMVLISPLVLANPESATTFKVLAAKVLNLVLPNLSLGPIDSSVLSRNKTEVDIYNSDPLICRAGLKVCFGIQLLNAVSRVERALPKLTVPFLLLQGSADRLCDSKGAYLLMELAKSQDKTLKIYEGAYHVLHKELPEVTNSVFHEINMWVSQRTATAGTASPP
Description: An equal volume of 7-HCA in assay buffer with 10% DMSO was added either immediately (T=0 min) or after a 30 minute incubation (T=30 min) to initiate the reaction. […] After these dilutions, the final concentration of the test compound ranged from 3 μM to 0.03 nM. […] IC50 values were generated based on a four parameter fit model using ABASE software from IDBS.

[2] = biological target: T1, human recombinant Monoacylglycerol Lipase; experiment: MAGL inactivation, enzyme progress curves, kinact/KI; conditions: from enzyme progress curves, T = 0 min protocol; geometric mean of 2-4 determinations unless otherwise indicated
Description: Assessment of MAGL inhibition utilizes human recombinant Monoacylglycerol Lipase and the fluorogenic substrate 7-hydroxycoumarinyl arachidonate (7-HCA, Biomol ST-502). 400 nL of a test compound at decreasing concentration (ranging from 150 μM down to 1.5 nM) was spotted into a 384-well back plate (PerkinElmer, 6007279) using a Labcyte Echo, followed by addition of 10 μL of MAGL enzyme in assay buffer (50 mM HEPES, pH 7.4, 100 mM NaCl, 5 mM MgCl2, 0.1% Triton X-100 and 25% glycerin). An equal volume of 7-HCA in assay buffer with 10% DMSO was added either immediately (T=0 min) or after a 30 minute incubation (T=30 min) to initiate the reaction. The final concentration of MAGL enzyme was […] and 7-HCA substrate was 5 μM. After these dilutions, the final concentration of the test compound ranged from 3 μM to 0.03 nM. The reaction was allowed to progress for 60 minutes, after which the plate was read at an Ex/Em of 340/465. Percent inhibitions were calculated based on control wells containing no compound (0% inhibition) and a control compound (e.g., a MAGL inhibitor whose activity is known or was previously reported in the literature, such as one with about 100% inhibition). IC50 values were generated based on a four parameter fit model using ABASE software from IDBS. See e.g., Wang, Y. et al., “A Fluorescence-Based Assay for Monoacylglycerol Lipase Compatible with Inhibitor Screening,” Assay and Drug Development Technologies, 2008, Vol. 6 (3) pp 387-393 (reporting an assay for measuring MAGL activity).
To measure MAGL inactivation, the same protocol for the (T=0 min) MAGL inhibition IC50 assay was performed with data collected every minute to acquire enzyme progress curves at decreasing concentrations of compound.

human recombinant FAAH = biological target: T2, human recombinant FAAH (Homo sapiens, UniProt O00519); experiment: FAAH inhibition enzymatic assay, fluorescent substrate Arachidonoyl-AMC, 30 minute incubation; conditions: T = 30 min (30 minute incubation); geometric mean of 2-4 determinations unless otherwise indicated
T2 construct: purchased Cayman 10010183
T2 sequence (O00519 1-579): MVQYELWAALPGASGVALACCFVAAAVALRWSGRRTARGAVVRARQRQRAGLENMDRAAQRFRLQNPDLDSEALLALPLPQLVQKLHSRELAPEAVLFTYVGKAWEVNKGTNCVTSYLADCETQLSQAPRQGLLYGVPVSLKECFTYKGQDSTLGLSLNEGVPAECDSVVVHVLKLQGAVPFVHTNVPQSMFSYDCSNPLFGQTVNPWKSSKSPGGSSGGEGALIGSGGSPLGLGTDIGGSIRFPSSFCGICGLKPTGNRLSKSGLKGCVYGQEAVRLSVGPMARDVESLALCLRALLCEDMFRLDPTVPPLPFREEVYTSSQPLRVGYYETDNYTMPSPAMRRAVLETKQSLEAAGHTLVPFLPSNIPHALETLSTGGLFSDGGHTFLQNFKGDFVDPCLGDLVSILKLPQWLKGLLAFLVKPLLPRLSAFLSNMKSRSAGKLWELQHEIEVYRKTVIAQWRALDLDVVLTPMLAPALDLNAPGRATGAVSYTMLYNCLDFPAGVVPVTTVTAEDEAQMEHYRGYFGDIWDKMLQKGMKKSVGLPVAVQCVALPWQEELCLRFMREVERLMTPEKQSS
Description: Assessment of FAAH inhibition utilizes human recombinant FAAH and the fluorescent substrate, Arachidonoyl-AMC. 400 nL of a test compound at decreasing concentrations was spotted into a 384-well back plate (PerkinElmer, 6007279) using a Labcyte Echo, followed by addition of 10 μl of FAAH enzyme (Cayman 10010183) in assay buffer (50 mM Tris, pH 9.0, 1 mM EDTA). After a 30 minute incubation at room temperature, 10 μL of Arachidonyl-AMCA was added in assay buffer with 16% DMSO. Final concentration of FAAH enzyme was 0.0125 Units and AAMCA substrate was used at the Km of 5 μM. […] The reaction was allowed to progress for 60 minutes, after which the plate was read on a Molecular Devices FlexStation reader at an Ex/Em of 355/460. Percent inhibitions were calculated based on controls wells containing either no compound (0% inhibition) or a control compound (e.g., an FAAH inhibitor whose activity is known or was previously reported in the literature, such as one with about 100% inhibition). IC50 values were generated based on a four parameter fit model using ABASE software from IDBS.

[3] = T = 0 min (substrate added immediately), read-out: MAGL (T = 0 min) IC50
[4] = T = 30 min (30 minute incubation), read-out: MAGL (T = 30 min) IC50

Row | SMILES | pIC50 [1, 3] | pIC50 [1, 4] | MAGL kinact/KI [2] | pIC50 (human recombinant FAAH)
1 | CC(c1ccc(F)cc1)N1CCOC2(CCN(C(=O)O[C@H](CO)C(F)(F)F)CC2)C1 (mixture of isomers) [Example 43] | 6.84 | 7.89 | 3478 1/s per M | < 4.52
2 | O=C(O)C(F)(F)F.O=C(O[C@H](CO)C(F)(F)F)N1CCC2(CC1)CC(c1ccc(F)cn1)CO2 (mixture of isomers) [Example 97, (2R)-1,1,1-Trifluoro-3-hydroxypropan-2-yl 3-(5-fluoropyridin-2-yl)-1-oxa-8-azaspiro[4.5]decane-8-carboxylate, trifluoroacetate salt] | 6.72 | 7.70 | 1897 1/s per M | < 4.52
3 | O=C(O[C@H](CO)C(F)(F)F)N1CCC2(CC1)CC(N1Cc3ccccc3S1(=O)=O)CO2 (mixture of isomers) [Example 101, (2R)-1,1,1-trifluoro-3-hydroxypropan-2-yl 3-(1,1-dioxido-1,2-benzothiazol-2(3H)-yl)-1-oxa-8-azaspiro[4.5]decane-8-carboxylate] | 6.74 | 7.68 | 2454 1/s per M | 5.18
4 | Cc1ccc(CC2COC3(CCN(C(=O)O[C@H](CO)C(F)(F)F)CC3)C2)nc1 (mixture of isomers) [Example 102, (2R)-1,1,1-Trifluoro-3-hydroxypropan-2-yl 3-[(5-methylpyridin-2-yl)methyl]-1-oxa-8-azaspiro[4.5]decane-8-carboxylate] | 6.67 | 7.59 | 1336 1/s per M | 4.74
5 | CN(C1COC2(CCN(C(=O)O[C@H](CO)C(F)(F)F)CC2)C1)S(=O)(=O)C1CCCC1 (mixture of isomers) [Example 112] | 7.19 | 8.15 | 14232 1/s per M | < 4.52
6 | CN(C1COC2(CCN(C(=O)O[C@H](CO)C(F)(F)F)CC2)C1)S(=O)(=O)C1CCC1 (mixture of isomers) [Example 113] | 6.86 | 8.00 | 6254 1/s per M | < 4.59
7 | CN(C1COC2(CCN(C(=O)O[C@H](CO)C(F)(F)F)CC2)C1)S(=O)(=O)c1cccnc1 (mixture of isomers) [Example 114] | 6.79 | 7.82 | 6263 1/s per M | < 4.52
8 | CN(C1COC2(CCN(C(=O)O[C@H](CO)C(F)(F)F)CC2)C1)S(=O)(=O)c1cncnc1 (mixture of isomers) [Example 115] | 6.47 | 7.57 | 2917 1/s per M | < 4.52
9 | O=C(O[C@H](CO)C(F)(F)F)N1CCC2(CC1)CC(c1cccc(OC(F)(F)F)c1)CO2 (mixture of isomers) [Example 118] | 8.70 | 9.40 | 172844 1/s per M | < 4.61
10 | O=C(O[C@H](CO)C(F)(F)F)N1CCC2(CC1)CC(c1cccc(Cl)c1)CO2 (mixture of isomers) [Example 119] | 7.49 | 8.52 | 23176 1/s per M | 5.45
11 | O=C(O[C@H](CO)C(F)(F)F)N1CCC2(CC1)CC(c1ccc(F)nc1)CO2 (mixture of isomers) [Example 120] | 6.78 | 7.68 | 1516 1/s per M | < 4.52
12 | COc1ccc(C2COC3(CCN(C(=O)O[C@H](CO)C(F)(F)F)CC3)C2)nc1 (mixture of isomers) [Example 121] | 6.83 | 7.70 | 1207 1/s per M | 4.83
13 | Cc1ccc(C2COC3(CCN(C(=O)O[C@H](CO)C(F)(F)F)CC3)C2)cn1 (mixture of isomers) [Example 123] | 6.46 | 7.52 | – | 4.61
14 | O=C(O[C@H](CO)C(F)(F)F)N1CCC2(CC1)CC(N1CCc3ccccc3S1(=O)=O)CO2 (mixture of isomers) [Example 131] | 7.07 | 7.96 | 4241 1/s per M | 4.76
15 | N#Cc1cccc(C2COC3(CCN(C(=O)O[C@H](CO)C(F)(F)F)CC3)C2)c1 (mixture of isomers) [Example 147] | 7.22 | 8.22 | 5973 1/s per M | < 4.58
16 | O=C(OC(C(F)(F)F)C(F)(F)CO)N1CCC2(CC1)CN(S(=O)(=O)c1ccc(F)cc1)CCO2 (racemic) [Example 19, 1,1,1,3,3-Pentafluoro-4-hydroxybutan-2-yl 4-[(4-fluorophenyl)sulfonyl]-1-oxa-4,9-diazaspiro[5.5]undecane-9-carboxylate] | 7.02 | 8.10 | 2397 1/s per M | < 4.52
17 | O=C(O[C@@H]([C@@H](O)C(F)(F)F)C(F)(F)F)N1C[C@@H]2[C@H](C1)[C@H]2c1ccn(-c2ccc(F)cc2)n1 (racemic) [Example 36] | 6.88 | 7.92 | 3736 1/s per M | 4.88
18 | CC(c1ccc(F)cc1)N1CCOC2(CCN(C(=O)O[C@H](CO)C(F)(F)F)CC2)C1 (single isomer, unassigned) [Example 44] | 6.75 | 7.77 | 3701 1/s per M | < 4.52
19 | CC(c1ccc(F)cc1)N1CCOC2(CCN(C(=O)O[C@H](CO)C(F)(F)F)CC2)C1 (single isomer, unassigned) [Example 45] | 6.72 | 7.74 | 3134 1/s per M | < 4.52
20 | O=C(O[C@H](CO)C(F)(F)F)N1CCC2(CC1)CC(c1ccccc1)CO2 (single isomer, unassigned) [Example 95] | 7.80 | 9.00 | 131495 1/s per M | 5.06
21 | O=C(O[C@H](CO)C(F)(F)F)N1CCC2(CC1)CC(n1cccn1)CO2 (single isomer, unassigned) [Example 103] | 6.48 | 7.52 | – | < 4.52
